Experimental data from patent US8093380B2, “Compounds with the bicyclo[4.2.1]nonane system for the treatment of Flaviviridae infections” (Pharmasset, Inc., priority 2002, dated 2012).
Where a name gives a salt, the structure may show the parent alone.

Columns and labels:
HCV replicon = HCV replicon system in Huh7 cells (real-time RT-PCR of replicon RNA); format: cell-based; details: for ΔCt HCV at 100 μM / EC50: Huh7 replicon cells; for ΔCt HCV at 100 μM: ΔCt of 3.3 = 1-log reduction in replicon production; for EC50: calculated from ΔCt values of dilution series
Procedure: The HCV replicon system in Huh7 cells.
Huh7 cells harboring the HCV replicon were cultivated in DMEM medium (high glucose, no pyruvate), supplemented with 10% fetal bovine serum, 1× non-essential amino acids, Pen-Strep-Glu (100 units/liter, 100 microgram/liter, and 2.92 mg/liter, respectively), and G418 (500 to 1000 microgram/milliliter). Antiviral screening assays were also done in the same medium without G418 as follows. To keep the cells in the logarithmic growth phase, cells were seeded in 96-well plates at low density (for example, 1000 cells per well). The test compound was then added immediately after seeding the cells, and they were incubated for 3 to 7 days at 37° C. in an incubator. The medium was then removed, and the cells were prepared for total RNA extraction (replicon RNA+host RNA). Replicon RNA was then amplified in a real-time RT-PCR (Q-RT-PCR) protocol, and quantified.
In such experiments, a way to express the antiviral effectiveness of a compound is to subtract the average threshold RT-PCR cycle of the negative control (Ctnegative) from the threshold RT-PCR cycle of the test compound (Cttestcompound). This value is called ΔCt (ΔCt=Cttestcompound−Ctnegative). A ΔCt value of 3.3 represents a 1-log reduction in replicon production.
The ΔCt values for each concentration allow the calculation of the 50% effective concentration (EC50).
Compounds were tested for inhibition of HCV RNA replication using the above assay.

human cell lines = assay: Toxicity in several human cell lines; format: cell-based
[1] = Toxicity in Swiss outbred mice, IP for 6 consecutive days; format: in vivo; details: up to 100 mg/kg
[2] = Oral and IV administration to rhesus monkeys; format: in vivo; details: 20 mg/kg
HCV [3] = assay: 14-day oral treatment of chronically HCV-infected chimpanzees, serum HCV viral load by real-time RT-PCR; format: in vivo
Procedure: Based on those toxicity data, a 14-day treatment (oral, QD at 5 mg/kg/day) of chronically HCV-infected chimpanzees was conducted. Viral RNA was extracted from the chronically infected chimpanzees serum samples in quadruplicate and the viral RNA pellets were dissolved in RNAse-free water. Subsequently, these RNA samples were amplified by real-time RT-PCR (Applied Biosystems, Foster City, Calif.) for the presence and quantity of the HCV nucleic acids. Primers and probes for HCV were designed using Primer Express (Applied Biosystems). Further details on the methodology will be published (Stuyver et al., 2002; manuscript submitted to Antimicrob. Agents Chemother.).
The results are expressed relative to the viral load in the pretreatment sample. Calculation of the viral load for each sample was based on 4 independent measurements of threshold RT-PCR cycles (Ct values). Mean±SD were calculated for each day's sample. The latter were used to express the observed viral load changes.
Two chimpanzees [Joseph (5.14 log10 IU/ml HCV) and Heppie (5.69 log10 IU/ml HCV)] were treated orally for 14 days with 5 mg/kg/day. The viral load changes that were observed are summarized below (FIG. 1): • 1. […] The viral load remained suppressed with a mean of 0.43 log10 IU/ml up to day 14.

[4] = Hematology and blood chemistry in treated chimpanzees; format: in vivo
Procedure: Hematology and blood chemistry report. The day 0 and day 14 samples were analyzed for hematological and blood chemistry parameters. Essentially, no changes in the baseline and after treatment samples were observed.

HCV [5] = details: ribavirin alone; cited from earlier work

Row | Compound | ΔCt HCV at 100 μM (HCV replicon) | EC50 (HCV replicon; Hepatitis C virus, Huh-7) | other results
1 | Cn1c(=O)c2nnn3c2n(c1=O)[C@@H]1O[C@H](C3)C(O)C1O (stereo partly drawn) [77 (R = CH3), 9,5′-Cyclo-1-methyl-3-(β-D-ribofuranosyl)-8-azaxanthine] | 5.9 | 0.4 µM | 
2 | O=c1ccc2nnn3c2n1[C@@H]1O[C@H](C3)C2OC(=S)OC21 (stereo partly shown) [82 (Y = H, Z = CH)] | 2.6 |  | 
3 | O=c1ncc2nnn3c2n1[C@@H]1O[C@H](C3)C(O)C1O (stereo partly shown) [15 (Y = H, Z = N)] | 3.6 | < 10 µM | 
4 | C/N=c1/[nH]c(=O)n2c3c1nnn3C[C@H]1O[C@@H]2C(O)C1O (stereo partly drawn) [75 (R = Me, R′ = H), 9,5′-Cyclo-3-(β-D-ribofuranosyl)-6-methylamino-8-azaxanthine] | 6.4 | < 6 µM | 
5 | O=c1ccc2nnn3c2n1[C@@H]1O[C@H](C3)C(O)C1O (stereo partly drawn) [15 (Y = H, Z = CH), 9,5′-Cyclo-3-(β-D-ribofuranosyl)-1-deaza-8-azapurine-2-one] | 4.48 | 20 µM | in vitro antiviral activity against HCV (HCV replicon; in words): demonstrated in vitro antiviral activity against HCV; toxicity in several human cell lines (human cell lines): practically no toxicity; toxicity [1]: no toxicity was apparent; death or significant weight loss ([1]; 28 day monitoring): None of the mice died or lost significant weight; untoward effects ([2]; IV administration): Neither oral administration nor IV administration to rhesus monkeys at 20 mg/kg caused any untoward effects; untoward effects ([2]; oral administration): Neither oral administration nor IV administration to rhesus monkeys at 20 mg/kg caused any untoward effects; reduction in viral load (HCV [3]; day 4, 5 mg/kg/day QD, in words): significant reduction; maximal drop in HCV viral load (HCV [3]; day 4, chimpanzee Heppie, oral 5 mg/kg/day QD): 0.8 log10 IU/ml; maximal drop in HCV viral load (HCV [3]; day 4, chimpanzee Joseph, oral 5 mg/kg/day QD): 0.5 log10 IU/ml; maximal drop in HCV viral load, mean for both animals (HCV [3]; day 4, mean of both chimpanzees, oral 5 mg/kg/day QD): 0.67 log10 IU/ml; viral load changes (HCV [3]; up to 24 hr after administration of the first dose, oral 5 mg/kg/day): No viral load changes were observed; viral load suppression, mean (HCV [3]; up to day 14, oral 5 mg/kg/day QD): 0.43 log10 IU/ml; changes in hematological and blood chemistry parameters ([4]; day 0 versus day 14; oral 5 mg/kg/day; Z=CH), 5 mg/kg/day): No change; hematological and blood chemistry parameters relative to normal range ([4]; throughout the study): remained in the normal range
6 | O=c1ccc2nnn3c2n1[C@H]1CC(O)[C@@H](C3)O1 (stereo partly shown) [83 (Y = H, Z = CH)] | 5.1 | < 6 µM | 
7 | Cl.Nc1nc(=O)n2c3c1ncn3C[C@H]1O[C@@H]2C(O)C1O (stereo partly drawn) [Compound 27, 6-Amino-5′,9-cyclo-3-(β-D-ribofuranosyl)-2-oxo-purine HCl salt] | 6.6 | < 3 µM | 
8 | Nc1nc(=O)n2c3c1nnn3C[C@H]1O[C@@H]2C(O)C1O (stereo partly drawn) [75 (R = R′ = H), 9,5′-Cyclo-3-(β-D-ribofuranosyl)-6-amino-8-azapurine-2-one hydrochloride] | 5.3 | 0.7 µM | 
9 | O=c1[nH]c(=O)n2c3c1nnn3CC1OC2C(O)C1O [15 (Y = OH, Z = N), 9,5′Cyclo-3-(β-D-ribofuranosyl)-8-azaxanthine] | 6.3 |  | EC50 (HCV replicon): < 10 µM
10 | CO/N=c1/[nH]c(=O)n2c3c1nnn3C[C@H]1O[C@@H]2C(O)C1O (stereo partly drawn) [75 (R = OMe, R′ = H), 9,5′-Cyclo-3-(β-D-ribofuranosyl)-6-methoxylamino-8-azaxanthine] | 6.5 | < 5 µM | 
11 | O=c1[nH]c(=O)n2c3c1nnn3C[C@H]1O[C@@H]2C(O)C1O (stereo partly shown) [Compound 65, 9,5′-Cyclo-carba-8-azaxanthosine] | 2.4 |  | 
12 | O=c1[nH]c(=O)n2c3c1nnn3C[C@H]1O[C@@H]2C(O)C1O (stereo partly drawn) [83 (Y = OH, Z = N), 9,5% Cyclo-3-(2′-deoxy-β-D-erythropentofuranosyl)-8-azaxanthine] | 2.1 | 60 µM | 
13 | Nc1cc(=O)n2c3c1nnn3C[C@H]1O[C@@H]2C(O)C1O (stereo partly drawn) [72 (R = R′ = H), 7-Amino-3,5′-cyclo-4-(β-D-ribofuranosyl)-vic-triazolo[4,5-b]pyridin-5-one] | 5.7 | 4.5 µM | 
14 | O=c1c(Br)cc2nnn3c2n1[C@@H]1O[C@H](C3)C(O)C1O (stereo partly drawn) [71 (X = Br), 3,5′-Cyclo-6-bromo-4-(β-D-ribofuranosyl)-vic-triazolo[4,5-b]pyridin-5-one] | 5.9 | < 1 µM | 
15 | O=c1[nH]c(=O)n2c3c1nnn3C[C@H]1O[C@@H]2C2OC(=S)OC21 (stereo partly drawn) [82 (Y = OH, Z = N), 9,5′-Cyclo-3-(2′,3′O-thiocarbonyl-β-D-ribofuranosyl)-8-azaxanthine] | 4.7 | 12 µM | 
16 | N#CCn1c(=O)c2nnn3c2n(c1=O)[C@@H]1O[C@H](C3)C(O)C1O (stereo partly drawn) [77 (R = CH2CN), 1-Cyanomethyl-9,5′-cyclo-3-(β-D-ribofuranosyl)-8-azaxanthine] | 4.7 | < 6 µM | 
17 | OC1C(O)[C@H]2Cn3nnc4ccc(=S)n(c43)[C@@H]1O2 (stereo partly drawn) [Compound 70, 3,5% Cyclo-4-(β-D-ribofuranosyl)-vic-triazolo[4,5-b]pyridin-5-thione] | 7.0 | 1 µM | 
18 | NC(=O)c1ncn([C@@H]2O[C@H](CO)[C@@H](O)[C@H]2O)n1 [Ribavirin, 1-β-D-ribofuranosyl-1H-1,2,4-triazole-3-carboxamide] |  |  | patients in whom serum amino transferase levels are reduced to normal (HCV [5]): 40%
19 | CNc1nc(=O)n2c3c1nnn3C[C@H]1O[C@@H]2C(O)C1O (stereo partly drawn) [72 (R = H, R′ = Me), 3,5′-Cyclo-7-methylamino-4-(β-D-ribofuranosyl)-vic-triazolo[4,5-b]pyridin-5-one] | 6.6 | < 1 µM | 
20 | CC1(C)OC2C(O1)[C@H]1Cn3nnc4c(=S)[nH]c(=O)n(c43)[C@@H]2O1 (stereo partly shown) [73 (Y = SH)] | 4.1 | 25 µM | 
21 | O=c1[nH]c(=S)c2nnn3c2n1[C@@H]1O[C@H](C3)C(O)C1O (stereo partly shown) [15 (Y = SH, Z = N)] | 3.61 | < 6 µM | 
22 | O=c1[nH]c(=O)n2c3c1ncn3C[C@H]1O[C@@H]2C(O)C1O (stereo partly drawn) [Compound 35, 5′,9-Cyclo-3-(β-D-ribofuranosyl)xanthine] | 6.0 | 4 µM | 
23 | CN(C)c1nc(=O)n2c3c1nnn3C[C@H]1O[C@@H]2C(O)C1O (stereo partly drawn) [75 (R = R′ = Me), 9,5′-Cyclo-3-(β-D-ribofuranosyl)-6-dimethylamino-8-azaxanthine] | 2.4 |  | 
24 | O=c1c(Cl)cc2nnn3c2n1[C@@H]1O[C@H](C3)C(O)C1O (stereo partly drawn) [71 (X = Cl), 3,5% Cyclo-6-chloro-4-(β-D-ribofuranosyl)-vic-triazolo[4,5-b]pyridin-5-one] | 6.0 | < 0.7 µM | 
